Here are results for 13 compounds from US11739098B2 (BRISTOL-MYERS SQUIBB COMPANY, priority 2017, dated 2023).

What all share (format): cell-based
In one assay the target is T1, human TLR7 (Homo sapiens, UniProt Q9NYK1).
T1 construct: host or cells: HEK-Blue cells (HEK293-derived reporter line)
T1 sequence (Q9NYK1 27-1049): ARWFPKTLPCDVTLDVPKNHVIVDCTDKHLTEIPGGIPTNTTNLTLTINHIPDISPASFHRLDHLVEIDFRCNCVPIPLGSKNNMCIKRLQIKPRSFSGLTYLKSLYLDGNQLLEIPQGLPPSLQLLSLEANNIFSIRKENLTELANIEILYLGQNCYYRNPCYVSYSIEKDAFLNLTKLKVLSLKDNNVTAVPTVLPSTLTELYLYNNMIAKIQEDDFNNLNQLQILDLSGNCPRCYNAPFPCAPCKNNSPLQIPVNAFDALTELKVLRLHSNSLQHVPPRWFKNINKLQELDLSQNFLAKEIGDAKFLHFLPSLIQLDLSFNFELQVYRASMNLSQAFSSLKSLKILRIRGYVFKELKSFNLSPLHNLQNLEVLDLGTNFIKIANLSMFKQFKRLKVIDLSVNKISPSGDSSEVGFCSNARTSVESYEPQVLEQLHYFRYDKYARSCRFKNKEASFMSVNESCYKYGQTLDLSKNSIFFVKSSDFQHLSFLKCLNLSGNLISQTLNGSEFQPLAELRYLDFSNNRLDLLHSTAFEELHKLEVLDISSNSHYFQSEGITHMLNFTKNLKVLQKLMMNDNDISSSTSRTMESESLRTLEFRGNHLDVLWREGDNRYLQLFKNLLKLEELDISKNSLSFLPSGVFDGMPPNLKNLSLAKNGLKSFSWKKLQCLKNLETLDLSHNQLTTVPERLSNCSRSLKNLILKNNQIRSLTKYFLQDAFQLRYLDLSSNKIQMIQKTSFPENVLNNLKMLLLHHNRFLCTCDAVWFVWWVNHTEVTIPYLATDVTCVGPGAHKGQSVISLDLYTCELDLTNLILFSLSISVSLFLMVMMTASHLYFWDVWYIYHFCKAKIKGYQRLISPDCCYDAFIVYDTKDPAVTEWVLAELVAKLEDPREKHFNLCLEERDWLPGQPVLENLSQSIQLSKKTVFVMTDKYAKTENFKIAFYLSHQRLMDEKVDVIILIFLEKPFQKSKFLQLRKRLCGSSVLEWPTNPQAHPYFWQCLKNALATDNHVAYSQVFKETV
Put plainly: TLR7 inhibition reporter assay (HEK-Blue cells, SEAP reporter, gardiquimod stimulation). The conditions noted are these: HEK-Blue cells overexpressing human TLR7, SEAP reporter, gardiquimod 7.5 μM. In short, it runs like this:
(§1)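 HEK-Blue cells overexpressing human TLR7, TLR8 or TLR9 (NF-κB/AP-1-driven SEAP) pre-treated 30 min at room temperature with compound (0.05 nM–50 μM), then stimulated with gardiquimod 7.5 μM (TLR7), R848 15.9 μM (TLR8) or ODN2006 5 nM (TLR9). SEAP read colorimetrically after 22 h at 37 °C; % inhibition calculated.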
In general terms: A reporter such as luciferase makes a cellular process visible.

The target in another assay is T2, human TLR9 (Homo sapiens, UniProt Q9NR96).
T2 construct: host or cells: HEK-Blue cells (HEK293-derived reporter line)
T2 sequence (Q9NR96 26-1032): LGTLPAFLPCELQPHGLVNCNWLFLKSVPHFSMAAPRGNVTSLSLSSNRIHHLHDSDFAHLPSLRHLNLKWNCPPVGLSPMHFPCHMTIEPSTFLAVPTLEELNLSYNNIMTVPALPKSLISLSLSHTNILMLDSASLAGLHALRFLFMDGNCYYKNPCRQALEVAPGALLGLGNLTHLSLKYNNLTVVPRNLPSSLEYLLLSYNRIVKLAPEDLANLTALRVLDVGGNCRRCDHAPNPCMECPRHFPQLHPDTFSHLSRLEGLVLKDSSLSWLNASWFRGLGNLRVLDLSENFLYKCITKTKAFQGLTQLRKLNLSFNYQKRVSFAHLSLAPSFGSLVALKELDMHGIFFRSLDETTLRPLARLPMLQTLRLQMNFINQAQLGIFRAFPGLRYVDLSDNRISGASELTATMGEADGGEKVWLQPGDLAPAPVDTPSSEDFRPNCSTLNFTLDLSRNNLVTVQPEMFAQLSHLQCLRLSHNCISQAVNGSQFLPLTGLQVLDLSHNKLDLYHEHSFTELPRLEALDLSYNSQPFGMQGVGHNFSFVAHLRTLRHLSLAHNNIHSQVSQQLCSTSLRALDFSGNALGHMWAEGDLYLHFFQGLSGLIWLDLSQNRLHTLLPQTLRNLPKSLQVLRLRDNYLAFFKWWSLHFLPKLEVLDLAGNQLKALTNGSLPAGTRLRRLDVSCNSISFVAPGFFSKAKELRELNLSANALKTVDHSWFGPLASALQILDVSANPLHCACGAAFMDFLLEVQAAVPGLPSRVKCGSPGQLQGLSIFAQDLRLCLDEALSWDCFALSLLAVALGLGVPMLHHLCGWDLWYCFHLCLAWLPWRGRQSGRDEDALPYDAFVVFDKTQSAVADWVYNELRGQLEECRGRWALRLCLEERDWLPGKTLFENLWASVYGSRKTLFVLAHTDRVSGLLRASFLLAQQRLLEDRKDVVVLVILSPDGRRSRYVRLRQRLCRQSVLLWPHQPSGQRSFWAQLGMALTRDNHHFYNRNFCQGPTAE
Put plainly: TLR9 inhibition reporter assay (HEK-Blue cells, SEAP reporter, ODN2006 stimulation). The conditions noted are these: HEK-Blue cells overexpressing human TLR9, SEAP reporter, ODN2006 5 nM. In short, it runs like this: as §1

A further assay addresses T3, human TLR8 (Homo sapiens, UniProt Q9NR97).
T3 construct: host or cells: HEK-Blue cells (HEK293-derived reporter line)
T3 sequence (Q9NR97 27-1041): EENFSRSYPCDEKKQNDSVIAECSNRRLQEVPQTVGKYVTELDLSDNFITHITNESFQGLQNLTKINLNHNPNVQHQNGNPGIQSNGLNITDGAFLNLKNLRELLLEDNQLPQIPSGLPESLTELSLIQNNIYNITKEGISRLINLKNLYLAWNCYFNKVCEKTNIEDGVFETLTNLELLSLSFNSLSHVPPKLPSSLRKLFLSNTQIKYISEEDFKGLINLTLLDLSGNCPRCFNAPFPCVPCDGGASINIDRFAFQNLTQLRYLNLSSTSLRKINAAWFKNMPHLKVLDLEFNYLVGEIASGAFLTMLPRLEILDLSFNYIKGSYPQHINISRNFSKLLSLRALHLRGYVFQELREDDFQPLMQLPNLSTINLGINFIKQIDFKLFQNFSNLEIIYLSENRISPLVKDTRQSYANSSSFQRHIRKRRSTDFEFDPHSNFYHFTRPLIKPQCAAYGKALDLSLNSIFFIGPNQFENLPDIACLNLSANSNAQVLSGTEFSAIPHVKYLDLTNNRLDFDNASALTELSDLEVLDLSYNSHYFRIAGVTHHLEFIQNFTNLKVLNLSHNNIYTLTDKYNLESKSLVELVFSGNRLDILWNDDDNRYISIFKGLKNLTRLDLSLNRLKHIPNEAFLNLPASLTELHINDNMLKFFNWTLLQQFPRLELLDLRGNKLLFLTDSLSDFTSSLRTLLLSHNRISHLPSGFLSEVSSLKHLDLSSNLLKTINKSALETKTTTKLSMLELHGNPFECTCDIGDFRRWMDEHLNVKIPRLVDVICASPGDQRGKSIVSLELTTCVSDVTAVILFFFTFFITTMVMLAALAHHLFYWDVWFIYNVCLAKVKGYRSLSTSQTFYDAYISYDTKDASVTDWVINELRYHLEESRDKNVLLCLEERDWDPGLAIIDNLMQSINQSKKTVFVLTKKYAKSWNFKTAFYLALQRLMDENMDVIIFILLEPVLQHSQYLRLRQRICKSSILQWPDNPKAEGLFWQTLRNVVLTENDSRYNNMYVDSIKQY
Put plainly: TLR8 inhibition reporter assay (HEK-Blue cells, SEAP reporter, R848 stimulation). As to conditions: HEK-Blue cells overexpressing human TLR8, SEAP reporter, R848 15.9 μM. The method in brief: as §1

A word on the IC50: it is the midpoint of a concentration-inhibition curve.

On to `CNCC(=O)N1CCC(c2ccc3[nH]c(-c4cnc5ccnn5c4)c(C(C)C)c3c2)CC1` [Example 503, 1-(4-(3-isopropyl-2-(pyrazolo[1,5-a]pyrimidin-6-yl)-1H-indol-5-yl)piperidin-1-yl)-2-(methylamino)ethan-1-one], for which the IC50 at human TLR7 was 100 to 1000 nM; on human TLR9, 100 to 1000 nM; against human TLR8 it was over 3130 nM.
On to `Cc1cc(-c2[nH]c3ccc(C4CCN(CC(=O)N(C)C)CC4)cc3c2C(C)C)cn2nnnc12` [Example 313, 2-(4-(3-isopropyl-2-(8-methyltetrazolo[1,5-a]pyridin-6-yl)-1H-indol-5-yl)piperidin-1-yl)-N,N-dimethylacetamide], for which the IC50 was under 100 nM at human TLR7, 1000 to 50000 nM on human TLR9 and under 100 nM against human TLR8.
For the compound `CC(C)c1c(-c2cc(C(C)C)c3nccn3c2)[nH]c2ccc(C3CCNCC3)cc12` [Example 260, 8-Isopropyl-6-(3-isopropyl-5-(piperidin-4-yl)-1H-indol-2-yl)imidazo[1,2-a]pyridine], the IC50 was under 100 nM against human TLR7, 1000 to 50000 nM against human TLR9 and 100 to 1000 nM on human TLR8.
`CNC(=O)CN1CCC(c2ccc3[nH]c(-c4cc(C)n5cncc5c4)c(C(C)C)c3c2)CC1` [Example 440, 2-(4-(3-isopropyl-2-(5-methylimidazo[1,5-a]pyridin-7-yl)-1H-indol-5-yl)piperidin-1-yl)-N-methylacetamide]: the results for the IC50 at human TLR7, against human TLR9 and on human TLR8 were under 100 nM, 100 to 1000 nM and under 100 nM, respectively.
Consider `CC(C)c1c(-c2ccnc3[nH]ncc23)[nH]c2ccc(C3CCN(Cc4ccc(OCCN(C)c5ccccn5)cc4)CC3)cc12` [Example 894, N-(2-(4-((4-(3-isopropyl-2-(1H-pyrazolo[3,4-b]pyridin-4-yl)-1H-indol-5-yl)piperidin-1-yl)methyl)phenoxy)ethyl)-N-methylpyridin-2-amine], for which the IC50 against human TLR7 is 100 to 1000 nM; against human TLR9 it was 100 to 1000 nM; on human TLR8, under 100 nM.
For `Cc1nnn2ccc(-c3[nH]c4ccc(C5CCN(Cc6ccn(C)n6)CC5)cc4c3C(C)C)cc12` [Example 888, 5-(3-isopropyl-5-(1-((1-methyl-1H-pyrazol-3-yl)methyl)piperidin-4-yl)-1H-indol-2-yl)-3-methyl-[1,2,3]triazolo[1,5-a]pyridine], the IC50 was under 100 nM at human TLR7, 1000 to 50000 nM against human TLR9 and under 100 nM at human TLR8.
On to `COc1cc(-c2[nH]c3ccc(C4CCN(CC(=O)N(C)C)CC4)cc3c2C(C)C)cc2nc(C)cn12` [Example 334, 2-(4-(3-isopropyl-2-(5-methoxy-2-methylimidazo[1,2-a]pyridin-7-yl)-1H-indol-5-yl)piperidin-1-yl)-N,N-dimethylacetamide], for which the half-maximal inhibitory concentration (IC50) against human TLR7, on human TLR9 and at human TLR8 was 100 to 1000 nM each time.
On to `CCc1c(-c2ccnc3[nH]ccc23)[nH]c2ccc(C3CCNCC3)cc12` [Example 236, 4-(3-ethyl-5-(piperidin-4-yl)-1H-indol-2-yl)-1H-pyrrolo[2,3-b]pyridine], for which the results for the IC50 against human TLR7, against human TLR9 and at human TLR8 were under 100 nM, 100 to 1000 nM and under 100 nM, respectively.
Turning to `Cc1cc(-c2[nH]c3ccc(C4CCN(C(=O)CCN5C[C@H]6CC[C@@H](C5)O6)CC4)cc3c2C(C)C)cn2nnnc12` [Example 622, 3-((1R,5S)-8-oxa-3-azabicyclo[3.2.1]octan-3-yl)-1-(4-(3-isopropyl-2-(8-methyltetrazolo[1,5-a]pyridin-6-yl)-1H-indol-5-yl)piperidin-1-yl)propan-1-one], the IC50 at human TLR7 is under 100 nM; on human TLR9, 1000 to 50000 nM; at human TLR8, under 100 nM.
For `Cc1cc2cc(-c3[nH]c4ccc(C5CCNCC5)cc4c3C(C)C)ccn2n1` [Example 145, 5-(3-isopropyl-5-(piperidin-4-yl)-1H-indol-2-yl)-2-methylpyrazolo[1,5-a]pyridine], the IC50 is under 100 nM on human TLR7, 1000 to 50000 nM against human TLR9 and 1000 to 50000 nM at human TLR8.
As to `CNC(=O)CN1CCC(c2ccc3[nH]c(-c4ccc5c(cnn5C)c4C)c(C(C)C)c3c2)CC1` [Example 365, 2-(4-(2-(1,4-dimethyl-1H-indazol-5-yl)-3-isopropyl-1H-indol-5-yl)piperidin-1-yl)-N-methylacetamide], the IC50 was under 100 nM against human TLR7, over 50000 nM against human TLR9 and 100 to 1000 nM at human TLR8.
For `CCc1c(-c2cnc3[nH]c(=O)[nH]c3c2)[nH]c2ccc(C3CCNCC3)cc12` [Example 180, 6-(3-ethyl-5-(piperidin-4-yl)-1H-indol-2-yl)-1,3-dihydro-2H-imidazo[4,5-b]pyridin-2-one], the IC50 on human TLR7, on human TLR9 and at human TLR8 was 1000 to 50000 nM each time.
Regarding `CC(C)c1c(-c2ccnc3[nH]ncc23)[nH]c2ccc(C3CCN(C(=O)CN(C)C)CC3)cc12` [Example 449, 2-(dimethylamino)-1-(4-(3-isopropyl-2-(1H-pyrazolo[3,4-b]pyridin-4-yl)-1H-indol-5-yl)piperidin-1-yl)ethanone], the results for the IC50 on human TLR7, against human TLR9 and against human TLR8 were under 100 nM, 1000 to 50000 nM and under 100 nM, respectively.
